Laboratory results taken from patent US6358885B1, “Substituted phenylheterocyclic herbicides” (Mississippi State University, priority 1992, dated 2002).

Legend:
chickweed = experiment: Test C preemergence/postemergence greenhouse plant response rating 0 to 100; format: in vivo, Stellaria media; settings: POSTEMERGENCE
Text: (§1) The compounds evaluated in this test were formulated in a non-phytoxic solvent and applied to the soil surface before plant seedlings emerged (preemergence application), to water that covered the soil surface (flood application), and to plants that were in the one-to-four leaf stage (postemergence application). A sandy loam soil was used for the preemergence and postemergence tests, while a silt loam soil was used in the flood test. Water depth was approximately 2.5 cm for the flood test and was maintained at this level for the duration of the test. Plant species in the preemergence and postemergence tests consisted of barley (Hordeum vulgare), bedstraw (Galium aparine), blackgrass (Alopecurus myosuroides), chickweed (Stellaria media), corn (Zea mays), cotton (Gossypium hirsutum), crabgrass (Digitaria sanguinalis), downy brome (Bromus tectorum), giant foxtail (Setaria faberii), lambsquarters (Chenopodium album), morningglory (Ipomoea hederacea), pigweed ([…]), rape (Brassica napus), ryegrass (Lolium multiflorum), sorghum (Sorghum bicolor), soybean (Glycine max), speedwell (Veronica persica), sugar beet (Beta vulgaris), velvetleaf (Abutilon theophrasti), wheat (Triticum aestivum), wild buckwheat (Polygonum convolvulus), and wild oat (Avena fatua). All plant species were planted one day before application of the compound for the preemergence portion-of this test. Plantings of these species were adjusted to produce plants of appropriate size for the post-emergence portion of the test. […] All plant species were grown using normal greenhouse practices. Visual evaluations of injury expressed on treated plants, when compared to untreated controls, were recorded approximately fourteen to twenty one days after application of the test compound. […] A dash (-) response means no test result.

soybean = experiment: as above; format: in vivo, Glycine max; settings: POSTEMERGENCE
Text: as §1

giant foxtail [1] = experiment: as above; format: in vivo, Setaria faberii; settings: POSTEMERGENCE
Text: as §1

downy brome = experiment: as above; format: in vivo, Bromus tectorum; settings: POSTEMERGENCE
Text: as §1

rape = experiment: as above; format: in vivo, Brassica napus; settings: POSTEMERGENCE
Text: as §1

barnyardgrass = experiment: Test B preemergence/postemergence greenhouse plant response rating 0 to 10; format: in vivo, Echinochloa crus-galli; settings: 0 to 10 scale
Method in brief: (§2)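 Planted seeds are treated preemergence with compound dissolved in a non-phytotoxic solvent, while postemergence applications go onto plants of two to eighteen cm. Plants stay in the greenhouse twelve to sixteen days and are then rated visually relative to controls.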

lambsquarters = experiment: as above; format: in vivo, Chenopodium album; settings: 0 to 10 scale
Method in brief: as §2

cotton = experiment: Test C preemergence/postemergence greenhouse plant response rating 0 to 100; format: in vivo, Gossypium hirsutum; settings: POSTEMERGENCE
Text: as §1

wild buckwheat = experiment: Test B preemergence/postemergence greenhouse plant response rating 0 to 10; format: in vivo, Polygonum convolvulus; settings: 0 to 10 scale
Method in brief: as §2

crabgrass = experiment: as above; format: in vivo, Digitaria spp.; settings: 0 to 10 scale
Method in brief: as §2

giant foxtail [2] = experiment: as above; format: in vivo, Setaria faberii; settings: 0 to 10 scale
Method in brief: as §2

cocklebur = experiment: as above; format: in vivo, Xanthium pensylvanicum; settings: 0 to 10 scale
Method in brief: as §2

wild oat [3] = experiment: Test C preemergence/postemergence greenhouse plant response rating 0 to 100; format: in vivo, Avena fatua; settings: POSTEMERGENCE
Text: as §1

wild oat [4] = experiment: Test B preemergence/postemergence greenhouse plant response rating 0 to 10; format: in vivo, Avena fatua; settings: 0 to 10 scale
Method in brief: as §2

purple nutsedge = experiment: as above; format: in vivo, Cyperus rotundus; settings: 0 to 10 scale
Method in brief: as §2

C#CCN1C(=O)COc2cc(F)c(-c3nn4c(c3Br)CCCC4)cc21 [Compound 56]
Plant response rating, Chickweed (chickweed; 62 g/ha, 0 to 100 scale): 100 | Plant response rating (0 to 100), Chickweed (chickweed; Rate 1 g/ha): 65 | Plant response rating (0 to 100), Chickweed (chickweed; Rate 4 g/ha): 80 | Plant response rating (0 to 100), Chickweed (chickweed; Rate 16 g/ha): 100 | Plant response rating, Soybean (soybean; 62 g/ha, 0 to 100 scale): 95 | Plant response rating (0 to 100), Soybean (soybean; Rate 1 g/ha): 40 | Plant response rating (0 to 100), Soybean (soybean; Rate 4 g/ha): 60 | Plant response rating (0 to 100), Soybean (soybean; Rate 16 g/ha): 90 | Plant response rating, Giant foxtail (giant foxtail [1]; 62 g/ha, 0 to 100 scale): 40 | Plant response rating (0 to 100), Giant foxtail (giant foxtail [1]; Rate 1 g/ha): 10 | Plant response rating (0 to 100), Giant foxtail (giant foxtail [1]; Rate 4 g/ha): 10 | Plant response rating (0 to 100), Giant foxtail (giant foxtail [1]; Rate 16 g/ha): 30 | Plant response rating Downy Brome (downy brome; 62 g/ha, 0 to 100 scale): 70 | Plant response rating (0 to 100), Downy Brome (downy brome; Rate 1 g/ha): 40 | Plant response rating (0 to 100), Downy Brome (downy brome; Rate 4 g/ha): 50 | Plant response rating (0 to 100), Downy Brome (downy brome; Rate 16 g/ha): 60 | Plant response rating, Rape (rape; 62 g/ha, 0 to 100 scale): 100 | Plant response rating (0 to 100), Rape (rape; Rate 1 g/ha): 100 | Plant response rating (0 to 100), Rape (rape; Rate 4 g/ha): 100 | Plant response rating (0 to 100), Rape (rape; Rate 16 g/ha): 100 | Plant response rating, Barnyardgrass (barnyardgrass; POSTEMERGENCE, Rate 10 g/ha): 3 | Plant response rating, Barnyardgrass (barnyardgrass; POSTEMERGENCE, Rate 50 g/ha): 4 | Plant response rating, Barnyardgrass (barnyardgrass; PREEMERGENCE, Rate 10 g/ha): 0 | Plant response rating, Barnyardgrass (barnyardgrass; PREEMERGENCE, Rate 50 g/ha): 0 | Plant response rating, Lambsquarter (lambsquarters; POSTEMERGENCE, Rate 10 g/ha): 10 | Plant response rating, Lambsquarter (lambsquarters; POSTEMERGENCE, Rate 50 g/ha): 10 | Plant response rating, Lambsquarter (lambsquarters; PREEMERGENCE, Rate 50 g/ha): 10 | Plant response rating, Cotton (cotton; 62 g/ha, 0 to 100 scale): 100 | Plant response rating (0 to 100), Cotton (cotton; Rate 1 g/ha): 100 | Plant response rating (0 to 100), Cotton (cotton; Rate 4 g/ha): 100 | Plant response rating (0 to 100), Cotton (cotton; Rate 16 g/ha): 100 | Plant response rating, Wild buckwheat (wild buckwheat; POSTEMERGENCE, Rate 10 g/ha): 10 | Plant response rating, Wild buckwheat (wild buckwheat; POSTEMERGENCE, Rate 50 g/ha): 10 | Plant response rating, Wild buckwheat (wild buckwheat; PREEMERGENCE, Rate 50 g/ha): 9 | Plant response rating, Crabgrass (crabgrass; POSTEMERGENCE, Rate 10 g/ha): 4 | Plant response rating, Crabgrass (crabgrass; POSTEMERGENCE, Rate 50 g/ha): 6 | Plant response rating, Crabgrass (crabgrass; PREEMERGENCE, Rate 10 g/ha): 0 | Plant response rating, Crabgrass (crabgrass; PREEMERGENCE, Rate 50 g/ha): 3 | Plant response rating, Giant foxtail (giant foxtail [2]; POSTEMERGENCE, Rate 10 g/ha): 4 | Plant response rating, Giant foxtail (giant foxtail [2]; POSTEMERGENCE, Rate 50 g/ha): 6 | Plant response rating, Giant foxtail (giant foxtail [2]; PREEMERGENCE, Rate 10 g/ha): 0 | Plant response rating, Giant foxtail (giant foxtail [2]; PREEMERGENCE, Rate 50 g/ha): 0 | Plant response rating, Cocklebur (cocklebur; POSTEMERGENCE, Rate 10 g/ha): 10 | Plant response rating, Cocklebur (cocklebur; POSTEMERGENCE, Rate 50 g/ha): 10 | Plant response rating, Cocklebur (cocklebur; PREEMERGENCE, Rate 10 g/ha): 2 | Plant response rating, Cocklebur (cocklebur; PREEMERGENCE, Rate 50 g/ha): 2 | Plant response rating, Wild oat (wild oat [3]; 62 g/ha, 0 to 100 scale): 60 | Plant response rating (0 to 100), Wild oat (wild oat [3]; Rate 1 g/ha): 30 | Plant response rating (0 to 100), Wild oat (wild oat [3]; Rate 4 g/ha): 40 | Plant response rating (0 to 100), Wild oat (wild oat [3]; Rate 16 g/ha): 50 | Plant response rating, Wild oat (wild oat [4]; POSTEMERGENCE, Rate 10 g/ha): 6 | Plant response rating, Wild oat (wild oat [4]; POSTEMERGENCE, Rate 50 g/ha): 6 | Plant response rating, Wild oat (wild oat [4]; PREEMERGENCE, Rate 50 g/ha): 5 | Plant response rating, Nutsedge (purple nutsedge; POSTEMERGENCE, Rate 10 g/ha): 4 | Plant response rating, Nutsedge (purple nutsedge; POSTEMERGENCE, Rate 50 g/ha): 7 | Plant response rating, Nutsedge (purple nutsedge; PREEMERGENCE, Rate 50 g/ha): 4
